Experimental data published in patent publication US20260232752A1, “COMBINATION THERAPY METHODS, COMPOSITIONS AND KITS” (Accure Therapeutics, S.L., priority 2019, published 2026).

Key:
[1] = test system: experimental autoimmune encephalomyelitis (EAE) mouse model; experiment: Study EAE-C03: clinical score in EAE mouse model, treatment in chronic phase; assay type: in vivo; details: after 17 days of treatment, treatment started in chronic phase
Experimental: Three in vivo studies supporting the medical plausibility of BN201 in the treatment of MS and optic neuritis were performed. These studies sought to test the neuroprotective effect of BN201 and were conducted in the neurodegenerative and demyelinating experimental autoimmune encephalomyelitis (EAE) mouse model. Immune response to Myelin Basic Protein (MBP) or Myelin Proteolipid Protein (PLP) induces lesions located predominantly in the spinal cord whereas immunization with Myelin Oligodendrocyte Glycoprotein (MOG) generates lesions located predominantly in the optic nerve and spinal cord. In the literature, the EAE model is commonly used as a model of MS and optic neuritis, since it can cause irreversible visual loss (Kezuka et al, Analysis of the pathogenesis of experimental autoimmune optic neuritis. J Biomed Biotechnol. 2011; 2011:294046; Guo et al, Decreased neural stem/progenitor cell proliferation in mice with chronic/nonremitting experimental autoimmune encephalomyelitis. Neurosignals. 2010; 18(1):1-8).
Study EAE-C03: daily i.p. administration of BN201 at two different concentrations was tested versus placebo according to the following experimental design: • EAE affected placebo-treated animals (pathological control group); • EAE-affected animals treated with BN201 at 50 mg/kg dose and • EAE-affected animals treated with BN201 at 100 mg/kg dose. […]

[2] = test system: EAE in C57BL6 mice immunized with MOG35-55; experiment: Example 4: BN201 and STAT3 inhibitor combination, chronic phase of EAE; assay type: in vivo, mouse; details: BN201 50 mg/kg i.p. alone (optimal), from day 34 to day 54
Experimental: Effect during the chronic phase of the disease in the animal model of Multiple Sclerosis (i.e., EAE in C57BL6 mice immunized with MOG35-55)
Efficacy and safety of combination therapy with optimal doses of BN201 (50 mg/kg) and S31-201 (5 mg/kg) in the progression of chronic EAE in mice.
Starting the chronic phase of the disease (by day 34) mice were administered: • the STAT3 inhibitor S31-201 (group A, 7 mice), • BN201 (group B, 6 mice), or • a combination thereof (group C, 6 mice) once a day for six days per week at optimal dosages (5 mg/kg for S31-201, 50 mg/kg for BN201).
S31-201 and BN201 were administered via i.p. injection in a saline vehicle at a volume of 5 mL/kg. Control mice received vehicle only via both oral and i.p. injection (group D, 6 mice) or nothing at all (group E, 2 mice). Mice were treated from day 34 (chronic EAE stage) until the end of the experiment on day 54.
The combination of BN201 and the STAT3-inhibitor S31-201 was evaluated for its effect during the chronic phase of the disease in the animal model of Multiple Sclerosis (i.e., EAE in C57BL6 mice immunized with MOG35-55). The objective of the study was to evaluate the efficacy and safety of combination therapy with optimal doses of BN201 (50 mg/kg) and 531-201 (5 mg/kg) in the progression of chronic EAE in mice. […]

[3] = test system: experimental autoimmune encephalomyelitis (EAE) mouse model; experiment: Study EAE-C05: clinical score in EAE mouse model with active comparators; assay type: in vivo; details: 100 mg/kg daily, after 5 days of treatment
Experimental: A second experiment (Study EAE-C05) was then performed using the same mouse model.
Study EAE-C05: In addition to two dose levels of BN201 and a placebo-treated group (pathological control group), the study design introduced two active comparators, dimethyl fumarate (DMF) and fingolimod (FTY720), and a sham group (group in which animals were manipulated as the pathological group but without MOG injection). All groups were administered daily. • sham control non-diseased placebo-treated animals (healthy control group); • EAE-affected placebo-treated animals (pathological control group); • EAE-affected animals treated orally with 15 mg/kg of DMF; • EAE-affected animals treated with 2 mg/kg of FTY720; • EAE-affected animals treated with BN201 at 50 or 100 mg/kg.
Clinical scores were assigned to assess disease severity using the following scale: 0=normal; 0.5=Partial tail paralysis; 1=Complete tail paralysis; 1.5=Tail paralysis and loss of righting reflex; 2=Partial hind limb paralysis/paralysis of one limb; 2.5=One limb paralysis and partial loss of activity of one other limb; 3=Bilateral hind limb paralysis; 4=Moribund; 5=exitus.
Therapeutic treatment was initiated on day 12 or 13, once each mouse started showing complete tail paralysis (Score 1).

CC(C)CN(CC(=O)N(CCCN1CCCC1=O)CC(N)=O)C(=O)CNCCc1ccccc1F [BN201, [N-(2-(2′-Fluorophenyl)ethyl)glycyl]-[N-(2-methylpropyl)glycyl]-N-[3-(2′-oxopyrrolidinyl)-propyl]glycinamide]
clinical score compared to placebo ([1]; 50 mg/kg daily i.p.): significantly decreased the clinical score
clinical score compared to placebo ([1]; 100 mg/kg daily i.p.): significantly decreased the clinical score
course of EAE in chronic phase (clinical score) [2]: not efficacious
clinical score compared to pathological control group [3]: significantly lower
